From publication PMC3158247 (Journal of medicinal chemistry, 2011)

Key:
[1] = test system: HepG2.2.15 cell line; settings: MTT assay
[2] = test system: HBV-transgenic mice (strain 1.3.32); format: in vivo; settings: oral gavage once daily for 14 days
[3] = test system: CL57BL/6 mice

Fc1cccc(Cl)c1C1CC(c2ccc(Cl)cc2)Nc2ncnn21 (single isomer, unassigned) [enantiomer 1 of 1a]
No cytotoxicity observed up to the highest concentration tested [1]: > 50 µM

Fc1cccc(Cl)c1C1CC(c2ccc(Cl)cc2)Nc2ncnn21 (racemic) [Compound 1a, 7-(2-Chloro-6-fluorophenyl)-5-(4-chlorophenyl)-4,5,6,7-tetrahydro-[1,2,4]triazolo[1,5-a]pyrimidine]
alanine transaminase (ALT) and bilirubin [2]: elevated levels of alanine transaminase (ALT) and bilirubin in a minority of treated animals | other serum chemistry changes [2]: did not result in any other obvious and significant dose-dependent serum chemistry changes | total sodium [2]: slight rise in total sodium | deaths as a result of compound exposure ([2]; 25 and 7.9 mg/kg): No animals were observed to have died as a result of compound exposure | weight loss, morphological or behavioral changes ([2]; 25 and 7.9 mg/kg): No weight loss, morphological or behavioral changes were noted | tolerability ([3]; CL57BL/6 (normal) mice): well-tolerated | platelets, neutrophils, lymphocytes (trend) ([3]; single intravenous bolus 25 mg/kg, 24 hours): trend towards reduction of platelets and neutrophils, and also an increase in lymphocytes | serum chemistry ([3]; single intravenous bolus, […] 1a and 7.9 mg/kg 3c respectively, 24 hours): unaffected | No cytotoxicity observed up to the highest concentration tested [1]: > 50 µM

Fc1cccc(F)c1C1C=C(c2ccc(Cl)cc2)Nc2ncnn21 (centres unmarked) [Compound 3c, 5-(4-Chlorophenyl)-7-(2,6-difluorophenyl)-4,7-dihydro-[1,2,4]triazolo[1,5-a]pyrimidine]
deaths as a result of compound exposure ([2]; 25 and 7.9 mg/kg): No animals were observed to have died as a result of compound exposure
